Assay results taken from patent US20250262201A1, “COMPOUNDS AND METHODS USEFUL FOR STABILIZING PHENYLALANINE HYDROXYLASE MUTATIONS” (Agios Pharmaceuticals, Inc., priority 2022, published 2025).

Molecular target: T1, human PAH with the R408W mutation (Homo sapiens, UniProt P00439, R408W)
T1 construct: expressed in transfected cells
T1 sequence (P00439 1-452 R408W): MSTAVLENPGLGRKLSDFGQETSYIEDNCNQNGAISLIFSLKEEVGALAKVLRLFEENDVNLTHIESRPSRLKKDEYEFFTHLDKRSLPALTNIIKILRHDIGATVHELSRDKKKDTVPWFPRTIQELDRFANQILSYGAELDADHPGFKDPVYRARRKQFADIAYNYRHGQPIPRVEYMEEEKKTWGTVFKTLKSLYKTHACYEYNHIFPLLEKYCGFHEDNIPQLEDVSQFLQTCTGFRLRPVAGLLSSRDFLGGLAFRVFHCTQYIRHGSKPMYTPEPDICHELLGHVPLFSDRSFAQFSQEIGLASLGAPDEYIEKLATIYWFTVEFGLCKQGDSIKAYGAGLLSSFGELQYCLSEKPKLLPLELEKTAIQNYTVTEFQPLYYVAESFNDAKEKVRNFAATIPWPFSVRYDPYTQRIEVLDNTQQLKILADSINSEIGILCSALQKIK
Assay: Cell Based Phenylalanine Flux Assay
Conditions: A375 cells expressing human R408W PAH; 24 hrs compound incubation; 13C-Tyrosine by LC-MS; average where tested multiple times; read-out: AC50

| Structure (SMILES) | AC50 [nM] |
| --- | --- |
| O=C(c1nnc(-c2ccc(F)cn2)o1)N1CCc2[nH]cnc2[C@@H]1c1ncc2ccccc2n1 [Example 167, (R)-(5-(5-fluoropyridin-2-yl)-1,3,4-oxadiazol-2-yl)(4-(quinazolin-2-yl)-6,7-dihydro-1H-imidazo[4,5-c]pyridin-5(4H)-yl)methanone] | 1000 to 5000 |
| O=C(c1nnc(-c2ccc(F)cn2)o1)N1CCc2[nH]cnc2[C@H]1c1ncc2ccccc2n1 [Example 168, (S)-(5-(5-fluoropyridin-2-yl)-1,3,4-oxadiazol-2-yl)(4-(quinazolin-2-yl)-6,7-dihydro-1H-imidazo[4,5-c]pyridin-5(4H)-yl)methanone] | < 500 |
| O=C(c1nnc(-c2ccc(C(F)(F)F)cn2)o1)N1CCc2[nH]cnc2[C@@H]1c1ncc2ccccc2n1 [Example 169, (R)-(4-(quinazolin-2-yl)-6,7-dihydro-1H-imidazo[4,5-c]pyridin-5(4H)-yl)(5-(5-(trifluoromethyl)pyridin-2-yl)-1,3,4-oxadiazol-2-yl)methanone] | 1000 to 5000 |
| O=C(c1nnc(-c2ccc(C(F)(F)F)cn2)o1)N1CCc2[nH]cnc2[C@H]1c1ncc2ccccc2n1 [Example 170, (S)-(4-(quinazolin-2-yl)-6,7-dihydro-1H-imidazo[4,5-c]pyridin-5(4H)-yl)(5-(5-(trifluoromethyl)pyridin-2-yl)-1,3,4-oxadiazol-2-yl)methanone] | 500 to 1000 |
| Cc1ccc(-c2nnc(C(=O)N3CCc4[nH]cnc4[C@H]3c3ncc4ccccc4n3)o2)nc1 [Example 171, (S)-(5-(5-methylpyridin-2-yl)-1,3,4-oxadiazol-2-yl)(4-(quinazolin-2-yl)-6,7-dihydro-1H-imidazo[4,5-c]pyridin-5(4H)-yl)methanone] | < 500 |
| Cc1ccc(-c2nnc(C(=O)N3CCc4[nH]cnc4[C@@H]3c3ncc4ccccc4n3)o2)nc1 [Example 172, (R)-(5-(5-methylpyridin-2-yl)-1,3,4-oxadiazol-2-yl)(4-(quinazolin-2-yl)-6,7-dihydro-1H-imidazo[4,5-c]pyridin-5(4H)-yl)methanone] | 1000 to 5000 |
| O=C(c1nnc(-c2cc(C(F)(F)F)ccn2)o1)N1CCc2[nH]cnc2[C@H]1c1ncc2ccccc2n1 [Example 173, (S)-(4-(quinazolin-2-yl)-6,7-dihydro-1H-imidazo[4,5-c]pyridin-5(4H)-yl)(5-(4-(trifluoromethyl)pyridin-2-yl)-1,3,4-oxadiazol-2-yl)methanone] | < 500 |
| O=C(c1nnc(-c2cc(C(F)(F)F)ccn2)o1)N1CCc2[nH]cnc2[C@@H]1c1ncc2ccccc2n1 [Example 174, (R)-(4-(quinazolin-2-yl)-6,7-dihydro-1H-imidazo[4,5-c]pyridin-5(4H)-yl)(5-(4-(trifluoromethyl)pyridin-2-yl)-1,3,4-oxadiazol-2-yl)methanone] | 1000 to 5000 |
| O=C(c1nnc(-c2cc[nH]n2)o1)N1CCc2[nH]cnc2[C@H]1c1ncc2ccccc2n1 [Example 175, (S)-(5-(1H-pyrazol-3-yl)-1,3,4-oxadiazol-2-yl)(4-(quinazolin-2-yl)-6,7-dihydro-1H-imidazo[4,5-c]pyridin-5(4H)-yl)methanone] | 500 to 1000 |
| O=C(c1nnc(-c2cc[nH]n2)o1)N1CCc2[nH]cnc2[C@@H]1c1ncc2ccccc2n1 [Example 176, (R)-(5-(1H-pyrazol-3-yl)-1,3,4-oxadiazol-2-yl)(4-(quinazolin-2-yl)-6,7-dihydro-1H-imidazo[4,5-c]pyridin-5(4H)-yl)methanone] | > 5000 |
| O=C(c1nnc(-c2cccnc2)o1)N1CCc2[nH]cnc2[C@H]1c1ncc2ccccc2n1 [Example 177, (S)-(5-(pyridin-3-yl)-1,3,4-oxadiazol-2-yl)(4-(quinazolin-2-yl)-6,7-dihydro-1H-imidazo[4,5-c]pyridin-5(4H)-yl)methanone] | < 500 |
| O=C(c1nnc(-c2cccnc2)o1)N1CCc2[nH]cnc2[C@@H]1c1ncc2ccccc2n1 [Example 178, (R)-(5-(pyridin-3-yl)-1,3,4-oxadiazol-2-yl)(4-(quinazolin-2-yl)-6,7-dihydro-1H-imidazo[4,5-c]pyridin-5(4H)-yl)methanone] | 1000 to 5000 |
| O=C(c1nnc(-c2ccncc2)o1)N1CCc2[nH]cnc2[C@H]1c1ncc2ccccc2n1 [Example 179, (S)-(5-(pyridin-4-yl)-1,3,4-oxadiazol-2-yl)(4-(quinazolin-2-yl)-6,7-dihydro-1H-imidazo[4,5-c]pyridin-5(4H)-yl)methanone] | < 500 |
| O=C(c1nnc(-c2ccncc2)o1)N1CCc2[nH]cnc2[C@@H]1c1ncc2ccccc2n1 [Example 180, (R)-(5-(pyridin-4-yl)-1,3,4-oxadiazol-2-yl)(4-(quinazolin-2-yl)-6,7-dihydro-1H-imidazo[4,5-c]pyridin-5(4H)-yl)methanone] | > 5000 |
| COc1ccc(-c2nnc(C(=O)N3CCc4[nH]cnc4[C@H]3c3ncc4ccccc4n3)o2)nc1 [Example 181, (S)-(5-(5-methoxypyridin-2-yl)-1,3,4-oxadiazol-2-yl)(4-(quinazolin-2-yl)-6,7-dihydro-1H-imidazo[4,5-c]pyridin-5(4H)-yl)methanone] | < 500 |
| COc1ccc(-c2nnc(C(=O)N3CCc4[nH]cnc4[C@@H]3c3ncc4ccccc4n3)o2)nc1 [Example 182, (R)-(5-(5-methoxypyridin-2-yl)-1,3,4-oxadiazol-2-yl)(4-(quinazolin-2-yl)-6,7-dihydro-1H-imidazo[4,5-c]pyridin-5(4H)-yl)methanone] | 1000 to 5000 |
| Cn1ncnc1C(=O)N1CCc2[nH]cnc2[C@@H]1c1ncc2ccccc2n1 [Example 183, (R)-(1-methyl-1H-1,2,4-triazol-5-yl)(4-(quinazolin-2-yl)-6,7-dihydro-1H-imidazo[4,5-c]pyridin-5(4H)-yl)methanone] | 1000 to 5000 |
| Cn1ncnc1C(=O)N1CCc2[nH]cnc2[C@H]1c1ncc2ccccc2n1 [Example 184, (S)-(1-methyl-1H-1,2,4-triazol-5-yl)(4-(quinazolin-2-yl)-6,7-dihydro-1H-imidazo[4,5-c]pyridin-5(4H)-yl)methanone] | < 500 |
| O=C(c1nnc(-c2cnn(C(F)F)c2)o1)N1CCc2[nH]cnc2[C@H]1c1ncc2ccccc2n1 [Example 185, (S)-(5-(1-(difluoromethyl)-1H-pyrazol-4-yl)-1,3,4-oxadiazol-2-yl)(4-(quinazolin-2-yl)-6,7-dihydro-1H-imidazo[4,5-c]pyridin-5(4H)-yl)methanone] | < 500 |
| O=C(c1nnc(-c2cnn(C(F)F)c2)o1)N1CCc2[nH]cnc2[C@@H]1c1ncc2ccccc2n1 [Example 186, (R)-(5-(1-(difluoromethyl)-1H-pyrazol-4-yl)-1,3,4-oxadiazol-2-yl)(4-(quinazolin-2-yl)-6,7-dihydro-1H-imidazo[4,5-c]pyridin-5(4H)-yl)methanone] | > 5000 |
| O=C(c1nnc(-c2cnn(C3CCC3)c2)o1)N1CCc2[nH]cnc2[C@H]1c1ncc2ccccc2n1 [Example 187, (S)-(5-(1-cyclobutyl-1H-pyrazol-4-yl)-1,3,4-oxadiazol-2-yl)(4-(quinazolin-2-yl)-6,7-dihydro-1H-imidazo[4,5-c]pyridin-5(4H)-yl)methanone] | < 500 |
| O=C(c1nnc(-c2cnn(C3CCC3)c2)o1)N1CCc2[nH]cnc2[C@@H]1c1ncc2ccccc2n1 [Example 188, (R)-(5-(1-cyclobutyl-1H-pyrazol-4-yl)-1,3,4-oxadiazol-2-yl)(4-(quinazolin-2-yl)-6,7-dihydro-1H-imidazo[4,5-c]pyridin-5(4H)-yl)methanone] | 1000 to 5000 |
